This assay concerns the target USP14 (Homo sapiens (Human), UniProt P54578). Put plainly: Usp14 inhibition assay (Example 57B, B-series compounds). The assay is classed as biochemical. Particulars: IC50 class; average value from a minimum of two experimental determinations. The text has this: Example 57B: Usp14 Inhibition Assay
The IC50 values in the Table below represent the average value from a minimum of two experimental determinations.

pIC50: −log10 of the molar value.

A word on the pIC50: it is the IC50 on a negative log10 scale, so that one unit is a factor of ten. Read a low pIC50 as a high IC50.

USP14, sequence (P54578 whole entry, looked up): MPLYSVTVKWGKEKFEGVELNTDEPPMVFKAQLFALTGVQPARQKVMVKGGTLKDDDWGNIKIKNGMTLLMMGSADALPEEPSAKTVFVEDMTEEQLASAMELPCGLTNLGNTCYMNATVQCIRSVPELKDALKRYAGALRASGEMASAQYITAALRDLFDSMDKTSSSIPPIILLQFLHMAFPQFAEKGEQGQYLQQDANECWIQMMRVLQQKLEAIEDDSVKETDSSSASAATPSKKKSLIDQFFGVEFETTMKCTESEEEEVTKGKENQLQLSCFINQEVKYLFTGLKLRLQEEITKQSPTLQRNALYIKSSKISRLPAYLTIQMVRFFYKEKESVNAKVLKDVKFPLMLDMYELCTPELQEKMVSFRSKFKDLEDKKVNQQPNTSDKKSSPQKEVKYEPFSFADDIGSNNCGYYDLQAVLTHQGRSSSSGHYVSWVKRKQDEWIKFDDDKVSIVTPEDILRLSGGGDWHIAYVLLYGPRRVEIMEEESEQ

Consider `Cc1c(C(=O)CN2[C@@H]3CC[C@H]2[C@@H](O)C3)cc(CCCC2CCOCC2)n1-c1ccc(C#N)cc1` (racemic) [Example 2B, (±)-4-(3-(2-((1S,2S,4R)-2-Hydroxy-7-azabicyclo[2.2.1]heptan-7-yl)acetyl)-2-methyl-5-(3-(tetrahydro-2H-pyran-4-yl)propyl)-1H-pyrrol-1-yl)benzonitrile], for which the negative logarithm of the IC50 (pIC50) is > 7.30.
Under `Cc1c(C(=O)CN2C3CCC2[C@@H](O)C3)cc(C[C@H]2C[C@@H](C#N)C2)n1-c1ccc(C#N)cc1` (mixture of isomers) [Example 4B, (±)-4-(5-4(1s,3S)-3-cyanocyclobutyl)methyl)-3-(2-((1R,2R,4S)-2-hydroxy-7-azabicyclo[2.2.1]heptan-7-yl)acetyl)-2-methyl-1H-pyrrol-1-yl)benzonitrile] stands > 7.30.
For the compound `Cc1c(C(=O)CN2C3CCC2[C@@H](O)C3)cc(COCCC#N)n1-c1ccc(C#N)cc1` (mixture of isomers) [Example 5B, (±)-4-(5-((2-Cyanoethoxy)methyl)-3-(2-((2R)-2-hydroxy-7-azabicyclo[2.2.1]heptan-7-yl)acetyl)-2-methyl-1H-pyrrol-1-yl)benzonitrile], the negative logarithm of the IC50 (pIC50) was < 6.30.
To `Cc1nccn1C/C=C/c1cc(C(=O)CN2C3CCC2[C@@H](O)C3)c(C)n1-c1ccc(C#N)cc1` (mixture of isomers) [Example 6B, (±)-4-(3-(2-((2R)-2-Hydroxy-7-azabicyclo[2.2.1]heptan-7-yl)acetyl)-2-methyl-5-((E)-3-(2-methyl-1H-imidazol-1-yl)prop-1-en-1-yl)-1H-pyrrol-1-yl)benzonitrile] belongs > 7.30.
Consider `Cc1c(C(=O)CN2C3CCC2[C@@H](O)C3)cc(CCCCS(C)(=O)=O)n1-c1ccc(C#N)cc1` (mixture of isomers) [Example 8B, (±)-4-(3-(2-((1R,2R,4S)-2-Hydroxy-7-azabicyclo[2.2.1]heptan-7-yl)acetyl-2-methyl-5-(4-(methylsulfonyl)butyl)-1H-pyrrol-1-yl)benzonitrile], for which the pIC50 is > 7.30.
On to `Cc1c(C(=O)CN2C3CCC2[C@@H](O)C3)cc(CCC2CCOCC2)n1-c1ccc(C#N)cc1` (mixture of isomers) [Example 9B, (±)-4-(3-(2-((2R)-2-Hydroxy-7-azabicyclo[2.2.1]heptan-7-yl)acetyl)-2-methyl-5-(2-(tetrahydro-2H-pyran-4-yl)ethyl)-1H-pyrrol-1-yl)benzonitrile], for which the negative-log IC50 (pIC50) was > 7.30.
To `Cc1c(C(=O)CN2C3CCC2[C@@H](O)C3)cc(C#CCCC#N)n1-c1ccc(C#N)cc1` (mixture of isomers) [Example 10B, (±)-4-(5-(4-Cyanobut-1-yn-1-yl)-3-(2-((2R)-2-hydroxy-7-azabicyclo[2.2.1]heptan-7-yl)acetyl)-2-methyl-1H-pyrrol-1-yl)benzonitrile] belongs > 7.30; to `Cc1c(C(=O)CN2C3CCC2[C@H](O)C3)cc(C(C)CCS(C)(=O)=O)n1-c1ccc(C#N)cc1` (mixture of isomers) [Example 11B, (±)-4-(3-(2-((2R)-2-Hydroxy-7-azabicyclo[2.2.1]heptan-7-yl)acetyl)-2-methyl-5-(4-(methylsulfonyl)butan-2-yl)-1H-pyrrol-1-yl)benzonitrile], < 6.30; to `Cc1c(C(=O)CN2[C@@H]3CC[C@H]2[C@@H](O)C3)cc(CCCCC2CCOCC2)n1-c1ccc(C#N)cc1` (racemic) [Example 14B, (±)-4-(3-(2-((1S,2S,4R)-2-Hydroxy-7-azabicyclo[2.2.1]heptan-7-yl)acetyl)-2-methyl-5-(4-(tetrahydro-2H-pyran-4-yl)butyl)-1H-pyrrol-1-yl)benzonitrile], > 7.30.
To `Cc1c(C(=O)CN2[C@@H]3CC[C@H]2[C@@H](O)C3)cc(/C=C/CC(C)(C)C#N)n1-c1ccc(C#N)cc1` (racemic) [Example 15B, (±)-4-(5-((E)-4-Cyano-4-methylpent-1-en-1-yl)-3-(2-((1R,2R,4S)-2-hydroxy-7-azabicyclo[2.2.1]heptan-7-yl)acetyl)-2-methyl-1H-pyrrol-1-yl)benzonitrile] belongs > 7.30.

The record behind these values is US11560385B2, “Proteasome activity enhancing compounds” (Proteostasis Therapeutics, Inc., priority 2018, dated 2023).
